Reference: patent US9255132B2, “Angiopoietin derived peptides” (Compugen Ltd., priority 2008, dated 2016)

Tests used:
[1] = system: avian chorioallantoic membrane (CAM); assay type: in vivo, Leghorn fertilized eggs; settings: fumagillin 5 μg/CAM; 48 h
Experimental: CGEN-G6 [SEQ ID NO: 6], CGEN-F9 [SEQ ID NO: 7], CGEN-F12 [SEQ ID NO: 8], CGEN-C6 [SEQ ID NO: 9], CGEN-A11 [SEQ ID NO: 10], and CGEN-G2 [SEQ ID NO: 11], were analyzed for their ability to affect angiogenesis using the in ovo avian chorioallantoic membrane (CAM) model of angiogenesis, which is widely used as a model to examine compounds affecting angiogenesis (Richardson and Singh 2003, Curr Drug Targets Cardiovasc Haematol Disord., 3(2):155-85). Two positive controls were used: fumagillin as a general anti-angiogenic compound, and Tie2 neutralizing antibody as anti-angiogenic inhibitor of the Ang/Tie2 pathway. Leghorn fertilized eggs were incubated for 4 days at 37° C., when a window was opened on the egg's shell, exposing the CAM. Two different doses of peptides (0.5 and 5 nmol/CAM), Tie-2 neutralizing antibody (R&D Systems, Cat#AF313, 10 μg/ml; 0.4 μg/CAM) or fumagillin (Tocris Bioscience, Cat #1768; 5 μg/CAM) were applied in a 40 μl volume inside an area of 1 cm^2 (restricted by a plastic ring) of the CAM on day 9 of embryo development. The appropriate vehicle controls were also tested. Forty-eight hours after treatment and subsequent incubation at 37° C., CAMs were fixed in situ, excised from the eggs, placed on slides and left to air-dry. Pictures were taken through a stereoscope equipped with a digital camera and the total length of the vessels was measured using image analysis software (NIH Image). For each group a total of 17-24 eggs from three different experiments were used. Data are presented as means±SEM and expressed as % of vehicle control. Statistical analysis (ANOVA followed by Dunnett's post-hoc test) was performed using Graph Pad.
FIG. 6 depict results obtained on vessel length with peptides CGEN-G6 [SEQ ID NO: 6], CGEN-F9 [SEQ ID NO: 7], CGEN-F12 [SEQ ID NO: 8], CGEN-C6 [SEQ ID NO: 9], CGEN-A11 [SEQ ID NO: 10], and CGEN-G2 [SEQ ID NO: 11], compared to Tie2 neutralizing antibody (Ab) and the anti-angiogenic compound fumagillin. Neutralizing Tie2 Ab blocked vessel length by 36%, while the angiogenesis inhibitor fumagillin blocked vessel length by 32%.

[2] = system: co-culture of early passage human endothelial cells with early passage human interstitial cells; experiment: AngioKit in vitro angiogenesis, total tubule length; assay type: cell-based; settings: 14 days, data not shown
[3] = system: oxygen-induced retinopathy (OIR); experiment: Rodent model of oxygen-induced retinopathy (OIR); assay type: in vivo, Sprague Dawley rats
From the text: In order to assess the in viva efficacy of CGEN-A 11 [SEQ ID NO: 10] in a disease model of angiogenesis, a rodent model of oxygen-induced retinopathy (OIR) was used. Sprague Dawley rats were raised from birth through day PI4 in a variable oxygen atmosphere consisting of 24-hour alternating cycles of 50% and 10% oxygen. Rats were predisposed to pathological retinal angiogenesis as a result of oxygen treatment. Upon removal from the oxygen exposure chamber on day P14, rats received intravitreal injections of CGEN-A11 [SEQ ID NO: 10] in one of two doses: 15 μg/ml (low) or 75 μg/ml (high), 100 μg/ml recombinant rat Tie-2/Fc (R&D Systems, 3874-T2) or 100 μg/ml anti-VEGFR2 (Sigma, V1014) as positive controls, a combination of CGEN-A11 [SEQ ID NO: 10] at 30 μg/ml and anti-VEGFR2 (100 μg/ml), or vehicle (PBS) at a volume of 5 μl. An additional similar intravitreal administration took place 3 days later, on day P17. All pups were sacrificed on day P20. Both normal, intra-retinal vascular growth and abnormal, pre-retinal neovascular growth were assessed at six days post-exposure (P20) in ADPase-stained retinal flat-mounts, using widely published methods (e.g. Penn J S et al., 1991, Invest Ophthalmol Vis Sci. 32(4):1147; MicLeod D S et al., 1987, Microvasc Res. 33:257-269). All assessments were performed by a single, highly trained observer, who was blinded to treatment group. Areas of normal and abnormal vascular growth were measured via computer-assisted image analysis using high-resolution digital images of the stained retinal flat-mounts. The data were subjected to analysis of variance to determine statistical significance and a Dunnett's post hoc test to identify how the various treatment groups compared.
Data are depicted using percent total retinal area vascularized. Sample sizes (10, 11 or 12) are indicated on each bar. […] These differences yielded statistical significance, both at p<0.0001. Statistical significance was calculated using area (mm^2) measurements.
Data are depicted as area vascularized (mm^2). Sample sizes (10, 11 or 12) are indicated on each bar.

CO[C@@H]1[C@H](OC(=O)/C=C/C=C/C=C/C=C/C(=O)O)CC[C@]2(CO2)[C@H]1[C@@]1(C)O[C@@H]1CC=C(C)C [fumagillin, reference compound]
inhibition of vessel length [1]: 32%

VEGF
induction of tubule length ([2]; VEGF 2 ng/mL, pro-angiogenic control): 130%

Cc1ccc(C(=O)Nc2ccc(S(=O)(=O)O)c3cc(S(=O)(=O)O)cc(S(=O)(=O)O)c23)cc1NC(=O)c1cccc(NC(=O)Nc2cccc(C(=O)Nc3cc(C(=O)Nc4ccc(S(=O)(=O)O)c5cc(S(=O)(=O)O)cc(S(=O)(=O)O)c45)ccc3C)c2)c1 [suramin]
reduction of tubule length ([2]; suramin 20 μM): 50%

B1: Tie-2/Fc: recombinant rat Tie-2/Fc (R&D Systems, 3874-T2), positive control (protein)
chain: AMDLILINSLPLVSDAETSLTCIASGWRPHEPITIGRDFEALMNQHQDPLEVTQDVTREWAKKVVWKREKASKINGAYFCEGRVRGEAIRIRTMKMRQQASFLPATLTMTVDKGDNVNISFKKVLIKEEDAVIYKNGSFIHSVPRHEVPDILEVHLPHAQPQDAGVYSARYIGGNLFTSAFTRLIVRRCEAQKWGPECNHLCTACMNNGVCHEDTGECICPPGFMGRTCEKACELHTFGRTCKERCSGQEGCKSYVFCLPDPYGCSCATGWKGLQCNEACHPGFYGPDCKLRCSCNNGEMCDRFQGCLCSPGWQGLQCEREGIQRMTPKIVDLPDHIEVNSGKFNPICKASGWPLPTNEEMTLVKPDGTVLHPKDFNHTDHFSVAIFTIHRILPPDSGVWVCSVNTVAGMVEKPFNISVKVLPKPLNAPNVIDTGHNFAVINISSEPYFGDGPIKSKKLLYKPVNHYEAWQHIQVTNEIVTLNYLEPRTEYELCVQLVRRGEGGEGHPGPVRRFTTASIGLPPPRGLNLLPKSQTTLNLTWQPIFPSSEDDFYVEVERRSVQKSDQQNIKVPGNLTSVLLNNLHPREQYVVRARVNTKAQGEWSEDLTAWTLSDILPPQPENIKISNITHSSAVISWTILDGYSISSITIRYKVQGKNEDQHVDVKIKNATITQYQLKGLEPETAYQVDIFAENNIGSSNPAFSHELVTLPESQAPADLGGGK
modifications: left off: a dimerising Fc or GST
notes: recombinant rat Tie-2/Fc (R&D Systems, 3874-T2), positive control
inhibition of pre-retinal neovascular growth (pathological angiogenesis) ([3]; Tie-2/Fc intravitreal 100 μg/ml, P20, p=0.0436): 61.9% | intra-retinal normal vascular growth compared to PBS control ([3]; intravitreal 100 μg/ml, 5 μl, P14 and P17, assessed P20, p<0.0001): statistically significant increase
